Source: patent US6489268B1, “Highly selective herbicidal phenoxypropionic acid alkoxycarbonyl anilid compounds and method of preparing the same” (Dongbu Hannong Chemical Co., Ltd., priority 1999, dated 2002)

What was measured:
Assay in all cases: Leaf treatment test (post-emergence spray, % damage)
Assay type in all cases: in vivo
Conditions in all cases: 14 days after treatment, vs untreated control
[1] = tested on: Oryza sativa L. cv. Dongjin (Rice, ORYSA)
Procedure: (§1) Seeds of rice, wheat, barley, corn, cotton, barnyard grass, common sorgum, large crabgrass and fall panicum were seeded at a pot with a surface area of 600 cm. When barnyard grass kept at 20˜30° C. had three leaves, wettable powders prepared by mixing 1 weight part of the active compound, 5 weight part of acetone and 1 weight part of emulsifier and diluting with water was applied directly on the leaves in 2000 l per hectare. The concentration of the spray liquid was so chosen the particular amounts of the active compound desired. 14 days after the treatment, the degree of damage to the plants was rated in % damage in comparison to the development of untreated control. 0% no action (like untreated control) 20% slight effect 70% herbicidal effect 100% total destruction [table]

[2] = tested on: Echinochloa crus-galli Beauv. var. caudata Kitagawa (Barnyard grass, ECHCG)
Procedure: as §1

[3] = tested on: Glydne max (L.) MERR (Soy bean, GLXMA)
Procedure: [The procedure below names another organism; the source lists this organism under the same test.] as §1

[4] = tested on: Zea mays L. (Corn, ZEAMX)
Procedure: as §1

[5] = tested on: Andropogon sorghum (Common sorgum, SORBI)
Procedure: as §1

[6] = tested on: Triticum aestivum L. (Wheat, TRZAW)
Procedure: as §1

[7] = tested on: Digitaria Sanguinalis (L.) SCOP (Large crabgrass, DIGSA)
Procedure: as §1

[8] = tested on: Gossypium (Cotton, GOSHI)
Procedure: as §1

[9] = tested on: Panicum dichotomiflorum Michx (Fall panicum, PANDI)
Procedure: as §1

COC(=O)c1cccc(NC(=O)C(C)Oc2ccc(Oc3nc4ccc(Cl)cc4o3)cc2)c1 (stereo not drawn) [Compound 1]
degree of damage to the plants, ORYSA ([1]; 15 g/ha): 0% | degree of damage to the plants, ORYSA ([1]; 30 g/ha): 0% | degree of damage to the plants, ORYSA ([1]; 60 g/ha): 0% | degree of damage to the plants, ORYSA ([1]; 125 g/ha): 0% | degree of damage to the plants, ORYSA ([1]; 250 g/ha): 10% | degree of damage to the plants, ORYSA ([1]; 500 g/ha): 20% | degree of damage to the plants, ORYSA ([1]; 1000 g/ha): 30% | degree of damage to the plants, ECHCG ([2]; 15 g/ha): 0% | degree of damage to the plants, ECHCG ([2]; 30 g/ha): 80% | degree of damage to the plants, ECHCG ([2]; 60 g/ha): 100% | degree of damage to the plants, ECHCG ([2]; 125 g/ha): 100% | degree of damage to the plants, ECHCG ([2]; 250 g/ha): 100% | degree of damage to the plants, ECHCG ([2]; 500 g/ha): 100% | degree of damage to the plants, ECHCG ([2]; 1000 g/ha): 100%

CCOC(=O)c1cccc(NC(=O)C(C)Oc2ccc(Oc3nc4ccc(Cl)cc4o3)cc2)c1 (stereo not drawn) [Compound 2]
degree of damage to the plants, GLXMA ([3]; 0.004 kg/ha): 0% | degree of damage to the plants, GLXMA ([3]; 0.016 kg/ha): 0% | degree of damage to the plants, GLXMA ([3]; 0.063 kg/ha): 0% | degree of damage to the plants, GLXMA ([3]; 1 kg/ha): 0% | degree of damage to the plants, GLXMA ([3]; 025 kg/ha): 0% | degree of damage to the plants, ZEMAX ([4]; 0.004 kg/ha): 0% | degree of damage to the plants, ZEMAX ([4]; 0.016 kg/ha): 0% | degree of damage to the plants, ZEMAX ([4]; 0.063 kg/ha): 20% | degree of damage to the plants, ZEMAX ([4]; 1 kg/ha): 100% | degree of damage to the plants, ZEMAX ([4]; 025 kg/ha): 100% | degree of damage to the plants, SORBI ([5]; 0.004 kg/ha): 40% | degree of damage to the plants, SORBI ([5]; 0.016 kg/ha): 100% | degree of damage to the plants, SORBI ([5]; 0.063 kg/ha): 100% | degree of damage to the plants, SORBI ([5]; 1 kg/ha): 100% | degree of damage to the plants, SORBI ([5]; 025 kg/ha): 100% | degree of damage to the plants, ORYSA ([1]; 0.004 kg/ha): 0% | degree of damage to the plants, ORYSA ([1]; 0.016 kg/ha): 0% | degree of damage to the plants, ORYSA ([1]; 0.063 kg/ha): 0% | degree of damage to the plants, ORYSA ([1]; 1 kg/ha): 40% | degree of damage to the plants, ORYSA ([1]; 15 g/ha): 0% | degree of damage to the plants, ORYSA ([1]; 025 kg/ha): 40% | degree of damage to the plants, ORYSA ([1]; 30 g/ha): 0% | degree of damage to the plants, ORYSA ([1]; 60 g/ha): 0% | degree of damage to the plants, ORYSA ([1]; 125 g/ha): 0% | degree of damage to the plants, ORYSA ([1]; 250 g/ha): 15% | degree of damage to the plants, ORYSA ([1]; 500 g/ha): 35% | degree of damage to the plants, ORYSA ([1]; 1000 g/ha): 45% | degree of damage to the plants, TRZAW ([6]; 0.004 kg/ha): 0% | degree of damage to the plants, TRZAW ([6]; 0.016 kg/ha): 0% | degree of damage to the plants, TRZAW ([6]; 0.063 kg/ha): 0% | degree of damage to the plants, TRZAW ([6]; 1 kg/ha): 40% | degree of damage to the plants, TRZAW ([6]; 025 kg/ha): 20% | degree of damage to the plants, ECHCG ([2]; 0.004 kg/ha): 90% | degree of damage to the plants, ECHCG ([2]; 0.016 kg/ha): 100% | degree of damage to the plants, ECHCG ([2]; 0.063 kg/ha): 100% | degree of damage to the plants, ECHCG ([2]; 1 kg/ha): 100% | degree of damage to the plants, ECHCG ([2]; 15 g/ha): 8% | degree of damage to the plants, ECHCG ([2]; 025 kg/ha): 100% | degree of damage to the plants, ECHCG ([2]; 30 g/ha): 100% | degree of damage to the plants, ECHCG ([2]; 60 g/ha): 100% | degree of damage to the plants, ECHCG ([2]; 125 g/ha): 100% | degree of damage to the plants, ECHCG ([2]; 250 g/ha): 100% | degree of damage to the plants, ECHCG ([2]; 500 g/ha): 100% | degree of damage to the plants, ECHCG ([2]; 1000 g/ha): 100% | degree of damage to the plants, DIGSA ([7]; 0.004 kg/ha): 95% | degree of damage to the plants, DIGSA ([7]; 0.016 kg/ha): 100% | degree of damage to the plants, DIGSA ([7]; 0.063 kg/ha): 100% | degree of damage to the plants, DIGSA ([7]; 1 kg/ha): 100% | degree of damage to the plants, DIGSA ([7]; 025 kg/ha): 100% | degree of damage to the plants, GOSHI ([8]; 0.004 kg/ha): 0% | degree of damage to the plants, GOSHI ([8]; 0.016 kg/ha): 0% | degree of damage to the plants, GOSHI ([8]; 0.063 kg/ha): 0% | degree of damage to the plants, GOSHI ([8]; 1 kg/ha): 0% | degree of damage to the plants, GOSHI ([8]; 025 kg/ha): 0% | degree of damage to the plants, PANDI ([9]; 0.004 kg/ha): 95% | degree of damage to the plants, PANDI ([9]; 0.016 kg/ha): 100% | degree of damage to the plants, PANDI ([9]; 0.063 kg/ha): 100% | degree of damage to the plants, PANDI ([9]; 1 kg/ha): 100% | degree of damage to the plants, PANDI ([9]; 025 kg/ha): 100%

CCOC(=O)c1cccc(N(C)C(=O)C(C)Oc2ccc(Oc3nc4ccc(Cl)cc4o3)cc2)c1 (stereo not drawn) [Compound 3]
degree of damage to the plants, ORYSA ([1]; 15 g/ha): 0% | degree of damage to the plants, ORYSA ([1]; 30 g/ha): 0% | degree of damage to the plants, ORYSA ([1]; 60 g/ha): 0% | degree of damage to the plants, ORYSA ([1]; 125 g/ha): 0% | degree of damage to the plants, ORYSA ([1]; 250 g/ha): 0% | degree of damage to the plants, ORYSA ([1]; 500 g/ha): 0% | degree of damage to the plants, ORYSA ([1]; 1000 g/ha): 0% | degree of damage to the plants, ECHCG ([2]; 15 g/ha): 0% | degree of damage to the plants, ECHCG ([2]; 30 g/ha): 0% | degree of damage to the plants, ECHCG ([2]; 60 g/ha): 20% | degree of damage to the plants, ECHCG ([2]; 125 g/ha): 90% | degree of damage to the plants, ECHCG ([2]; 250 g/ha): 100% | degree of damage to the plants, ECHCG ([2]; 500 g/ha): 100% | degree of damage to the plants, ECHCG ([2]; 1000 g/ha): 100%

COC(=O)c1ccc(NC(=O)C(C)Oc2ccc(Oc3nc4ccc(Cl)cc4o3)cc2)cc1 (stereo not drawn) [Compound 4]
degree of damage to the plants, GLXMA ([3]; 0.025 kg/ha): 0% | degree of damage to the plants, GLXMA ([3]; 0.1 kg/ha): 0% | degree of damage to the plants, ZEAMX ([4]; 0.025 kg/ha): 0% | degree of damage to the plants, ZEAMX ([4]; 0.1 kg/ha): 0% | degree of damage to the plants, SORBI ([5]; 0.025 kg/ha): 70% | degree of damage to the plants, SORBI ([5]; 0.1 kg/ha): 100% | degree of damage to the plants, ORYSA ([1]; 0.025 kg/ha): 0% | degree of damage to the plants, ORYSA ([1]; 0.1 kg/ha): 30% | degree of damage to the plants, TRZAW ([6]; 0.025 kg/ha): 0% | degree of damage to the plants, TRZAW ([6]; 0.1 kg/ha): 0% | degree of damage to the plants, ECHCG ([2]; 0.025 kg/ha): 100% | degree of damage to the plants, ECHCG ([2]; 0.1 kg/ha): 100% | degree of damage to the plants, DIGSA ([7]; 0.025 kg/ha): 100% | degree of damage to the plants, DIGSA ([7]; 0.1 kg/ha): 100% | degree of damage to the plants, GOSHI ([8]; 0.025 kg/ha): 0% | degree of damage to the plants, GOSHI ([8]; 0.1 kg/ha): 0% | degree of damage to the plants, PANDI ([9]; 0.025 kg/ha): 80% | degree of damage to the plants, PANDI ([9]; 0.1 kg/ha): 100%

CCOC(=O)c1ccc(NC(=O)C(C)Oc2ccc(Oc3nc4ccc(Cl)cc4o3)cc2)cc1 (stereo not drawn) [Compound 5]
degree of damage to the plants, GLXMA ([3]; 0.025 kg/ha): 0% | degree of damage to the plants, GLXMA ([3]; 0.1 kg/ha): 20% | degree of damage to the plants, ZEAMX ([4]; 0.025 kg/ha): 0% | degree of damage to the plants, ZEAMX ([4]; 0.1 kg/ha): 30% | degree of damage to the plants, SORBI ([5]; 0.025 kg/ha): 95% | degree of damage to the plants, SORBI ([5]; 0.1 kg/ha): 100% | degree of damage to the plants, ORYSA ([1]; 0.025 kg/ha): 0% | degree of damage to the plants, ORYSA ([1]; 0.1 kg/ha): 40% | degree of damage to the plants, TRZAW ([6]; 0.025 kg/ha): 0% | degree of damage to the plants, TRZAW ([6]; 0.1 kg/ha): 20% | degree of damage to the plants, ECHCG ([2]; 0.025 kg/ha): 95% | degree of damage to the plants, ECHCG ([2]; 0.1 kg/ha): 100% | degree of damage to the plants, DIGSA ([7]; 0.025 kg/ha): 100% | degree of damage to the plants, DIGSA ([7]; 0.1 kg/ha): 100% | degree of damage to the plants, GOSHI ([8]; 0.025 kg/ha): 0% | degree of damage to the plants, GOSHI ([8]; 0.1 kg/ha): 0% | degree of damage to the plants, PANDI ([9]; 0.025 kg/ha): 95% | degree of damage to the plants, PANDI ([9]; 0.1 kg/ha): 100%
